# Laboratory results published in patent US20260256909A1, “COMBINATION OF A BTN3A ACTIVATING ANTIBODY, A BCL2 INHIBITOR AND HYPOMETHYLATING AGENT FOR USE IN TREATING CANCER” (Imcheck Therapeutics, priority 2022, published 2026).
# Legend:
# [1] = system: Vγ9Vδ2 T cells; experiment: Survival of Vγ9Vδ2 T cells in HD-PBMC (Caspase3/7 and dead cell marker, flow cytometry); format: cell-based, human; settings: for reduced survival of Vγ9Vδ2 T cells compared to no Venetoclax condition: simultaneous treatment with ICT01 1 μg/mL
# Method: The effect of ICT01 on the survival of Vγ9Vδ2 T cells upon treatment with Bcl-2 family member inhibitors was assessed in Peripheral Blood Mononuclear Cells from Healthy Donors (HD-PBMC) using the apoptotic marker Caspase3/7 and a dead cell marker in flow cytometry analysis.
# (§1) Peripheral Blood Mononuclear Cells (PBMC) were isolated by Ficoll density gradient centrifugation of peripheral blood (EDTA-buffy coats) from healthy donors (HD, n=4-6), cultured in PBMC medium (RPMI 1640 Medium supplemented with 10% Fetal Bovine Serum (FBS), 1% Penicillin/Streptomycin and 1 mM Sodium Pyruvate) and treated with ICT01 or its isotype control (hIgG1S) used at 1 μg/mL in the presence or absence of increasing concentrations of Venetoclax (0-0.1 μM), 5-Azacytidine (0-0.4 μM) or the combination, or ABT-737 (0-1.875 μM), Navitoclax (0-1.875 μM) or MIK665 (0-1.875 μM). Cells were harvested on day 2, centrifuged at 1800 rpm for 5 minutes and then incubated 10 minutes at room temperature (RT) with 25 μl of FcR blocking reagent (Miltenyi Biotec) before adding 25 μL of the following antibody mix prepared in PBS+2% FBS+2 mM EDTA (FACS buffer): anti-CD4-BUV395, CD56-BV421, Vd2-PE, CD3-PE-CF594 and CD8-A700 antibodies for the identification of immune subsets, anti-CD25-BV650 and CD69-APC antibodies were added to monitor activation status of Vγ9Vδ2 T cells, and a viability marker (LIVE/DEAD™ Fixable Dead Cell Stain) was added to distinguish live from dead cells. Cells were incubated 20 minutes at room temperature (RT) and washed 2 times with FACS buffer. A Caspase3/7 Green detection reagent (ThermoFisher) was added to determine apoptosis and cells were incubated for 30 minutes at RT before flow cytometry analysis.
# In a similar experiment, freshly isolated PBMC were stimulated with ICT01 or its isotype control hIgG1S for 1 day prior to a 2 day-treatment with Venetoclax (FIG. 3a). The number of live Vγ9Vδ2 T cells was assessed by flow cytometry at the end of the incubation time.
# [2] = system: Vγ9Vδ2 T cells; experiment: Phenotypic activation of Vγ9Vδ2 T cells in HD-PBMC (CD69/CD25 expression, flow cytometry); format: cell-based, human; settings: for activation of Vγ9Vδ2 T cells by ICT01 (CD25 expression): HD-PBMC treated one day with Venetoclax (0-0.1 μM), 5-Azacytidine (0-0.4 μM) prior to ICT01 for two days; for effect on the ICT01-induced upregulation of CD25 by Vγ9Vδ2 T cells: day 4, together with ICT01 1 μg/mL, Venetoclax 0-0.1 μM, 5-Azacytidine 0-0.4 μM
# Method: as §1
# ICT01-induced phenotypic activation of Vγ9Vδ2 T cells is indicated by the upregulation of CD25. Therefore, human PBMC from healthy donors (HD, n=6) were cultured with ICT01 or its isotype control (hIgG1S) used at 1 μg/mL in the presence or absence of increasing concentrations of Venetoclax (0-0.1 μM), 5-Azacytidine (0-0.4 μM) or the combination in PBMC medium (RPMI 1640 Medium supplemented with 10% FBS, 1% Penicillin/Streptomycin and 1 mM Sodium Pyruvate). Cells were harvested on day 4, centrifuged at 1800 rpm for 5 minutes and then incubated 10 minutes at room temperature (RT) with 25 μl of FcR blocking reagent (Miltenyi Biotec) before adding 25 μL of the following antibody mix prepared in PBS+2% FBS+2 mM EDTA (FACS buffer): anti-CD4-BV650, CD56-FITC, Vd2-PE, CD3-PE-CF594 and CD8-A700 antibodies for the identification of immune subsets, an anti-CD25-BV650 antibody was added to monitor activation status, and a viability marker (LIVE/DEAD™ Fixable Dead Cell Stain) was added to distinguish live from dead cells. Cells were incubated 20 minutes at 4° C. and washed 2 times in FACS buffer before flow cytometry analysis.
# In a similar experiment, freshly isolated healthy donor-derived PBMC were treated with increasing concentrations of Venetoclax (0-0.1 μM), 5-Azacytidine (0-0.4 μM) or the combination for one day prior to stimulation with ICT01 or its isotype control hIgG1S for two days. Again, activation of Vγ9Vδ2T cells by ICT01 was unaffected by Venetoclax and 5-Azacytidine treatment, as indicated by the similar induction of CD25 expression in all conditions tested (Figure b).
# [3] = 0.01 μM Venetoclax, HD-PBMC, 48 h
# [4] = 0.1 μM Venetoclax, HD-PBMC, 48 h
Compound,"effect on the survival of Vγ9Vδ2 T cells ([1]; HD-PBMC, 48 h, 5-Azacytidine 0-0.4 μM)",activation of Vγ9Vδ2 T cells by ICT01 (CD25 expression) [2],effect on the ICT01-induced upregulation of CD25 by Vγ9Vδ2 T cells ([2]; HD-PBMC),"reduction of live cells (Vγ9Vδ2 T cells) compared to no Venetoclax condition [1, 3]","reduced survival of Vγ9Vδ2 T cells compared to no Venetoclax condition [1, 3]","reduction of live cells (Vγ9Vδ2 T cells) compared to no Venetoclax condition [1, 4]","reduced survival of Vγ9Vδ2 T cells compared to no Venetoclax condition [1, 4]","Venetoclax induced cell death of Vγ9Vδ2 T cells ([1]; PBMC stimulated with ICT01 for 1 day prior to a 2 day-treatment with Venetoclax, vs hIgG1S)","activation of Vγ9Vδ2 T cells: expression of CD69 and CD25 ([2]; HD-PBMC, 2 days, ICT01 1 μg/mL, compared to hIgG1S)"
"Nc1ncn([C@@H]2O[C@H](CO)[C@@H](O)[C@H]2O)c(=O)n1 [5-Azacytidine, 4-amino-1-[(2R,3R,4S,5R)3,4-dihydroxy-5-(hydroxymethyl)oxolan-2-yl]-1,3,5-triazin-2-one]",no effect,unaffected,no effect,–,–,–,–,–,–
"CC1(C)CCC(CN2CCN(c3ccc(C(=O)NS(=O)(=O)c4ccc(NCC5CCOCC5)c([N+](=O)[O-])c4)c(Oc4cnc5[nH]ccc5c4)c3)CC2)=C(c2ccc(Cl)cc2)C1 [Venetoclax, 4-[4-[[2-(4-chlorophenyl)-4,4-dimethylcyclohexen-1-yl]methyl]piperazin-1-yl]-N-[3-nitro-4-(oxan-4-ylmethylamino)phenyl]sulfonyl-2-(1H-pyrrolo[2,3-b]pyridin-5-yloxy)benzamide]",–,unaffected,no effect,~ 29%,~ 11%,~ 49%,~ 30%,–,–
"ICT01: humanized BTN3A activating antibody of mAb 7.2, heavy chain SEQ ID NO: 4, light chain SEQ ID NO: 6, silent IgG1 L247F/L248E/P350S",–,–,–,–,–,–,–,significantly reduced,increased expression of CD69 and CD25
